Data as given in US20240207265A1, “TREATMENT OF CNS DISEASES WITH sGC STIMULATORS” (Tisento Therapeutics Inc., priority 2021, published 2024).

Assay: Microdialysis experiments in rat brain
Format: in vivo
Conditions: 3 mg/kg PO as sodium salt, Sprague Dawley rats
Procedure: The goal of the current study was to evaluate levels of sGC stimulators of the invention in the hippocampus and striatum interstitial fluid (ISF), as well as in the circulating plasma after administration to Sprague Dawley male rats. To do so, rats were implanted with microdialysis probes in the hippocampus and striatum and a jugular vein cannula (JVC). After the collection of one pre-dose ISF sample, animals were dosed with sGC stimulator. Samples were collected for 24 hours through a hippocampal and striatal probe as well as serial plasma sampling collected through the JVC after administration. All collected samples were stored at −80° C. waiting for analysis on compound levels in the dialysate.
Five Sprague Dawley rats pre-cannulated with a jugular vein cannula were used for this study. Upon arrival, rats were group-housed in polycarbonate cages (2-3/cage) and acclimated for at least 3 days prior to commencing studies. Animals were housed in a 12 hr light/dark cycle with room temperature maintained at 22+2° C. and approximately 50% humidity and received food and water ad libitum. Rats were tracked via unique identifying numbers. Experiments were conducted in accordance with protocols approved by the Institutional Animal Care and Use Committee of Charles River Laboratories South San Francisco. […]

Cc1cc(F)c(Cc2nc(-c3ncc(F)c(O)n3)cn3ccnc23)cc1F [Compound I-14, 5-fluoro-2-(8-(2,5-difluoro-4-methylbenzyl)imidazo[1,2-a]pyrazin-6-yl)pyrimidin-4-ol]
side effects of the treatment: No obvious side effects
